From US11149013B2, “Crystal form of urate transporter 1 inhibitor and preparation method and use thereof” (Tianjin Institute of Pharmaceutical Research Co., Ltd., priority 2018, dated 2021)

Experiments:
Assay type in all cases: physicochemical
[1] = Influencing factor test: stability to high humidity; settings: high humidity 92.5% RH, open weighing bottle
Experimental: (§1) The HPLC conditions for the determination of the crystal form A of the compound TY706 and its raw material in the present invention were as follows: chromatographic column: C18, 5 μu, Φ4.6×150 mm, Waters Atlantis T3; mobile phase A: acetonitrile-methanol=9:1, mobile phase B: 10 mM diammonium hydrogen phosphate (pH was adjusted to 4.30±0.03 with phosphoric acid), gradient elution (Table 2); detection wavelength: 225 nm; column temperature: 35° C.; flow rate: 1.0 mL/min; sample concentration: 0.3 mg/mL; injection volume: 15 μL; solvent for dissolving: phosphate buffer (pH 7.8-8.0; prepared by dissolving 5.59 g of dipotassium hydrogen phosphate and 0.41 g of potassium dihydrogen phosphate by adding water to a volume of 1000 mL).
(§2) The sample of the crystal form A of TY706 prepared in Example 1 and the raw material for the preparation of the crystal form A were simultaneously subjected to influencing factor tests, and they were respectively placed under the conditions of illumination (5000 Lx·hr, with the weighing bottle being placed open), high heat (60° C., with the weighing bottle being placed open), and high humidity (92.5% RH, with the weighing bottle being placed open) for 14 days, and the appearance and the number and total amount of impurities (determined by HPLC) were compared with those measured on day 0, and the results are shown in Table 5-7.

[2] = Influencing factor test: stability to light; settings: illumination 5000 Lx·hr, open weighing bottle
Experimental: as §1, §2

[3] = Influencing factor test: stability to high heat; settings: high heat 60° C., open weighing bottle
Experimental: as §1, §2

**Q.** For `O=C(O)CSc1nnc(Br)n1Cc1ccc(Br)c2ccccc12` [Crystal form A of TY706], which Appearance ([1]; day 0) is on record?
**A.** White solid

**Q.** What about the Number of impurities ([1]; day 0, HPLC) of the same compound?
**A.** 4

**Q.** What about the “Total amount of impurities” value ([1]; day 0, HPLC) of the same compound?
**A.** 0.24%

**Q.** What about the Appearance ([1]; day 7) of the same compound?
**A.** White solid

**Q.** And the Number of impurities ([1]; day 7, HPLC)?
**A.** 4

**Q.** What about the “Total amount of impurities” value ([1]; day 7, HPLC) of the same compound?
**A.** 0.24%

**Q.** What about the Appearance ([1]; day 14) of the same compound?
**A.** White solid

**Q.** And the Number of impurities ([1]; day 14, HPLC)?
**A.** 4

**Q.** And the “Total amount of impurities” value ([1]; day 14, HPLC)?
**A.** 0.25%

**Q.** What about the Appearance ([2]; day 0) of the same compound?
**A.** White solid

**Q.** What about the Number of impurities ([2]; day 0, HPLC) of the same compound?
**A.** 4

**Q.** What about the “Total amount of impurities” value ([2]; day 0, HPLC) of the same compound?
**A.** 0.24%

**Q.** And the Appearance ([2]; day 7)?
**A.** White solid

**Q.** What about the Number of impurities ([2]; day 7, HPLC) of the same compound?
**A.** 6

**Q.** And the “Total amount of impurities” value ([2]; day 7, HPLC)?
**A.** 0.28%

**Q.** What about the Appearance ([2]; day 14) of the same compound?
**A.** White solid

**Q.** What about the Number of impurities ([2]; day 14, HPLC) of the same compound?
**A.** 7

**Q.** What about the “Total amount of impurities” value ([2]; day 14, HPLC) of the same compound?
**A.** 0.41%

**Q.** What about the Appearance ([3]; day 0) of the same compound?
**A.** White solid

**Q.** What about the Number of impurities ([3]; day 0, HPLC) of the same compound?
**A.** 4

**Q.** What about the “Total amount of impurities” value ([3]; day 0, HPLC) of the same compound?
**A.** 0.24%

**Q.** And the Appearance ([3]; day 7)?
**A.** White solid

**Q.** What about the Number of impurities ([3]; day 7, HPLC) of the same compound?
**A.** 4

**Q.** What about the “Total amount of impurities” value ([3]; day 7, HPLC) of the same compound?
**A.** 0.25%

**Q.** What about the Appearance ([3]; day 14) of the same compound?
**A.** White solid

**Q.** And the Number of impurities ([3]; day 14, HPLC)?
**A.** 5

**Q.** What about the “Total amount of impurities” value ([3]; day 14, HPLC) of the same compound?
**A.** 0.26%

**Q.** What does the source list for `O=C(O)CSc1nnc(Br)n1Cc1ccc(Br)c2ccccc12` [TY706 raw material]?
**A.** Appearance ([1]; day 0): White solid; Number of impurities ([1]; day 0, HPLC): 11; Total amount of impurities ([1]; day 0, HPLC): 0.69%; Appearance ([1]; day 7): White solid; Number of impurities ([1]; day 7, HPLC): 12; Total amount of impurities ([1]; day 7, HPLC): 0.72%; Appearance ([1]; day 14): White solid; Number of impurities ([1]; day 14, HPLC): 14; Total amount of impurities ([1]; day 14, HPLC): 0.84%; Appearance ([2]; day 0): White solid; Number of impurities ([2]; day 0, HPLC): 11; Total amount of impurities ([2]; day 0, HPLC): 0.69%; Appearance ([2]; day 7): White solid; Number of impurities ([2]; day 7, HPLC): 13; Total amount of impurities ([2]; day 7, HPLC): 1.13%; Appearance ([2]; day 14): Light yellow; Number of impurities ([2]; day 14, HPLC): 25; Total amount of impurities ([2]; day 14, HPLC): 2.68%; Appearance ([3]; day 0): White solid; Number of impurities ([3]; day 0, HPLC): 11; Total amount of impurities ([3]; day 0, HPLC): 0.69%; Appearance ([3]; day 7): White solid; Number of impurities ([3]; day 7, HPLC): 12; Total amount of impurities ([3]; day 7, HPLC): 0.78%; Appearance ([3]; day 14): White solid; Number of impurities ([3]; day 14, HPLC): 15; Total amount of impurities ([3]; day 14, HPLC): 1.19%
